According to patent publication US12458693B2, “Methods of treating iron overload with a BMP inhibitor” (Keros Therapeutics, Inc., priority 2020, dated 2025):
Entries after “also recorded” stand apart in the source; their conditions may differ.

Experiments:
[1] = Phase 1 SAD/MAD study in healthy volunteers: safety and tolerability; assay type: in vivo, human; conditions: for dose level up to which well tolerated: healthy participants
Description: A total of 131 healthy, males aged 18 to 60 years and post-menopausal females aged 45 to 60 years, participated in this study.
(§1) The primary objectives of this study were to a) evaluate safety and tolerability of escalating doses of the compound of Formula I-11 administered as single and multiple oral doses in healthy male volunteers and healthy postmenopausal female volunteers and b) evaluate the PK parameters following escalating doses of the compound of Formula I-11 administered as single and multiple oral doses. The secondary objective of this study was to evaluate the pharmacodynamic (PD) parameters following escalating doses of the compound of Formula I-11 administered as single and multiple oral doses. This study was conducted in two parts.
Part 1 included 80 participants (10 cohorts of 8 participants each). Male and female participants who met the eligibility criteria were randomly assigned, in a ratio of 3:1 to receive the compound of Formula I-11 or matching placebo, N=6 and 2 per dose cohort, respectively. Participant enrollment included […] males and 12.5% females (postmenopausal). The IMP formulation used in Cohorts 1 through 6 was an oral capsule (doses of 1, 3, 10, 30, 100, or 300 mg capsule formulation). An oral liquid formulation was evaluated in Cohorts 7 through 10 (doses of 30, 100, 300 or 450 mg liquid formulation).
(§2) Participants in Part 1 received a single oral dose of the compound of Formula I-11 or placebo on Day 1 and serial PK samples were collected. Baseline assessments were performed on day −1 prior to dosing. Samples were collected for determination of pharmacodynamic parameters at pre-dose daily and up to 24 hours post dose (day 2) after a single oral dose of the compound of Formula I-11. Participants remained at the study site for observation for 24 hours post-dose through the PK sample collection on Day 2. Participants returned to the site for the 48, 72, and 120-hour post-dose sample collection on Days 3, 4, and 6. Safety was evaluated by a Safety Review Committee prior to escalation to the next dose level cohort.
Part 2, Cohorts 1 through 4, included 41 participants (4 cohorts of 10 participants each and 1 additional placebo participant in Cohort 1). Male and female participants who met the eligibility criteria were randomly assigned at a ratio of 4:1 to receive either the compound of Formula I-11 oral liquid formulation or matching placebo, N=8 and 2 per dose cohort respectively. Forty (97.6%) males and 1 (2.4%) female (placebo) participant were enrolled.
(§3) Participants in Part 2, Cohorts 1 through 3, received a daily oral dose of the compound of Formula I-11 (50, 100, or 200 mg liquid formulation respectively) or placebo for 7 days. A daily oral dose of the compound of Formula I-11 or placebo in participants in Part 2, Cohort 4 (350 mg liquid formulation) was planned for 14 days but was discontinued early in all subjects, either by the Investigator because of AEs, or by the Sponsor. A decision was made by the Sponsor to discontinue dosing of the entire cohort based on the frequency of AEs and laboratory abnormalities after Day 9. In Cohort 4, participants on the compound of Formula I-11 received daily oral dosing of 350 mg for up to 7 days; one placebo participant received daily oral dosing for 9 days. Samples were collected for determination of pharmacodynamic parameters at pre-dose daily and to 24 hours post dose (day 8) while on drug. Daily trough PK samples were collected for the determination of steady-state from Day 2 to Day 12 or 13. Participants returned to the site on Day 30 for an end-of-study visit. Safety was evaluated by a Safety Review Committee prior to escalation to the next dose level cohort.
Part 2, MAD Cohort 5 (C5) participants received either the compound of Formula I-11, 100 mg (n=8) or placebo (n=2) on Days 1, 2, 3, 4, 5, 6, 7. The last dose was administered on the morning of Day 7. […]

[2] = system: transferrin saturation; assay: Transferrin saturation (TSAT) in healthy volunteers; assay type: in vivo, human
Description: as §2, §3
(§4) Pharmacodynamic endpoints: Protocol-specified endpoints were assessed at baseline and regularly throughout the study period. These assessments included measurements of serum iron, transferrin saturation (calculated as serum iron/total iron-binding capacity), serum ferritin, serum hepcidin, and reticulocyte hemoglobin content. Measurements of all pharmacodynamic end points were made using standard clinical laboratory tests. Hepcidin analysis was performed using an ELISA kit from Intrinsic LifeSciences (Intrinsic Hepcidin IDx™ ELISA kit).

[3] = system: serum iron; assay: Serum iron in healthy volunteers; assay type: in vivo, human
Description: as §2, §3, §4

[4] = system: lymphocytes; assay: Lymphocyte counts in healthy volunteers (MAD); assay type: in vivo, human
Description: as §3

[5] = system: reticulocyte hemoglobin content; assay: Reticulocyte hemoglobin content in healthy volunteers (MAD); assay type: in vivo, human
Description: as §3, §4

[6] = Phase 1 SAD/MAD study in healthy volunteers: pharmacokinetics; assay type: in vivo, human
Description: as §1
as §2, with “Participants remained at the study site for observation for 24 hours post-dose through the PK sample collection on Day 2. Participants returned to the site for the 48, 72, and 120-hour post-dose sample collection on Days 3, 4, and 6.” left out
Participants in Part 2, Cohorts 1 through 3, received a daily oral dose of the compound of Formula I-11 (50, 100, or 200 mg liquid formulation respectively) or placebo for 7 days. […] Safety was evaluated by a Safety Review Committee prior to escalation to the next dose level cohort. […]

[7] = system: serum hepcidin; assay: Serum hepcidin in healthy volunteers (Intrinsic Hepcidin IDx ELISA); assay type: in vivo, human
Description: as §3, with “Daily trough PK samples were collected for the determination of steady-state from Day 2 to Day 12 or 13. Participants returned to the site on Day 30 for an end-of-study visit.” left out, “cohort. […]” for “cohort.”
(§5) Pharmacodynamic endpoints: Protocol-specified endpoints were assessed at baseline and regularly throughout the study period. These assessments included measurements of serum iron, transferrin saturation (calculated as serum iron/total iron-binding capacity), serum ferritin, serum hepcidin, and reticulocyte hemoglobin content. […]

[8] = system: serum ferritin; assay: Serum ferritin in healthy volunteers; assay type: in vivo, human
Description: as §2
Participants in Part 2, Cohorts 1 through 3, received a daily oral dose of the compound of Formula I-11 (50, 100, or 200 mg liquid formulation respectively) or placebo for 7 days. […] Safety was evaluated by a Safety Review Committee prior to escalation to the next dose level cohort.
as §5

[9] = system: non-dextran-bound iron content in livers; assay: Non-dextran-bound liver iron in iron dextran mouse model of iron overload, second assay (10% HCl 10% TCA extraction); assay type: in vivo, CD1 mice; conditions: 5 mg/kg QD, iron overloaded mice; **P<0.01, ****P<0.0001
Description: (§6) After 20 days of iron loading, a subgroup of mice was sacrificed to confirm iron overload. The remaining iron loaded mice were dosed QD with either the compound of Formula I-42, a small molecule selective ALK2 kinase inhibitor (5 mg/kg) or vehicle. […] Mice were sacrificed 16 hours post the 1st dose (16 hr) and […] post the 3rd dose (63 hr) of the compound of Formula I-42 and livers dissected and weighed.
(§7) In the second assay, non-heme tissue iron was extracted via acid hydrolysis and iron levels determined using the bathophenanthroline disulfonate method. Briefly, 50 mg sections of mouse liver were flash frozen on liquid nitrogen at study termination. Samples were processed by addition of a 10% HCl 10% Trichloroacetic acid mixture and allowed to extract for 20 hours at 65° C. Following extraction, samples were cooled to room temperature and centrifuged briefly. Samples were transferred to a 96-well plate at the appropriate dilution and a chromogen reagent mixture containing of bathophenanthrolinedisulfonic acid, thioglycolic acid, and saturated sodium acetate was added. Samples and standards and blanks were then read via absorbance at 535 nm on a SpectraMax plate reader after a brief incubation. Sample concentrations were determined by linear regression analysis in GraphPad Prism. […] Data are shown as average±SEM. […]

[10] = system: hepcidin 25; assay: Time course of serum hepcidin in wild-type mice (ELISA); assay type: in vivo, C57BI/6 mice; conditions: 5 mg/kg gavage once daily, third treatment day
Description: (§8) To assess the effect of the compound of Formula I-42, a small molecule selective ALK2 kinase inhibitor, on hepcidin and serum iron, a time course experiment was conducted. For time course analysis, female C57BI/6 mice were gavaged once daily with either the compound of Formula I-42 (5 mg/kg), or vehicle. On the third treatment day, ten mice from each dosing group were euthanized 4, 6, 8, 12, 16, or 24 hours post-dosing. Blood was sampled and serum extracted. The mature form of hepcidin (hepcidin 25) was measured in serum with the use of a commercial ELISA (Intrinsic LifeSciences, CA) as per the manufacturer's instructions. Serum iron levels were determined with the use of a commercial assay that was based on the standard bathophenanthroline disulfonate method (BioAssay Systems, CA) as per the manufacturer's instructions. […] Data are shown as the average±SEM.

[11] = system: serum iron; assay: Time course of serum iron in wild-type mice (bathophenanthroline disulfonate method); assay type: in vivo, C57BI/6 mice; conditions: 5 mg/kg gavage once daily
Description: as §8

[12] = system: liver iron content; assay: Liver iron content in iron dextran mouse model of iron overload, first assay (30% HCl 10% TCA extraction); assay type: in vivo, CD1 mice; conditions: 5 mg/kg QD, by 63 hours of dosing, iron overloaded mice; ****P<0.0001
Description: as §6
as §7, with “Two assays were performed to evaluate tissue iron. In” for “In”, “the first” for “the second”, “a 30%” for “a 10%”, “containing” for “containing of”, “standards” for “standards and blanks”, “reader immediately.” for “reader after a brief incubation.”

[13] = Day 4, MAD first dose level (50 mg daily)
[14] = Day 4, MAD fourth dose level (350 mg daily)
[15] = Day 4, MAD second dose level (100 mg daily)
[16] = Day 4, MAD third dose level (200 mg daily)

COc1cc2c(-c3cnn4cc(N5CCC(N6CCN(C)CC6)CC5)cnc34)ccnc2cc1F [Formula I-11]
dose level up to which well tolerated ([1]; after 7 daily oral doses): up to 200 mg
AEs reported in >2 treated subjects and higher than placebo ([1]; human, in vivo): headache, nausea, vomiting, diarrhea, gastroenteritis, chills, pyrexia, myalgia, decreased appetite, lymphopenia, neutropenia, abdominal discomfort, abdominal pain (upper), dizziness, fatigue, rhinorrhea, tonsillitis, and liver enzyme increases
AEs that led to study drug discontinuation in three or more participants ([1]; human, in vivo): lymphopenia and chills
participants who discontinued the study due to AEs ([1]; human, in vivo): 10 of 40 (25%)
serious adverse events ([1]; human, in vivo): no serious adverse events
severity of the majority of AEs ([1]; human, in vivo): mild or moderate in severity
subjects who discontinued the study due to AEs ([1]; human, in vivo): none
subjects with increases in ALT>2×ULN ([1]; human, in vivo): 3
dose level up to which well tolerated ([1]; single oral dose): up to 450 mg
transferrin saturation mean percent change from baseline [2, 13]: 1.6%
transferrin saturation mean percent change from baseline [2, 14]: 30.1%
transferrin saturation mean percent change from baseline [2, 15]: 1.5%
transferrin saturation mean percent change from baseline [2, 16]: 7.5%
observed PD response (transferrin saturation) ([2]; once-daily doses of 50 mg): not substantially different from placebo
observed PD response (transferrin saturation) ([2]; single dose of 30 mg, liquid formulation): not substantially different from placebo
effect on transferrin saturation ([2]; single or repeated doses of 100 mg or above): sustained, dose-related increases in transferrin saturation
serum iron mean change from baseline [3, 13]: 1.48 μM/L
serum iron mean change from baseline [3, 14]: 17.71 μM/L
serum iron mean change from baseline [3, 15]: 0.59 μM/L
serum iron mean change from baseline [3, 16]: 5.11 μM/L
serum iron concentrations by Day 7 ([3]; MAD, some participants exhibiting large PD effects on Day 4): returned to baseline or below
time of peak serum iron concentrations ([3]; multiple dose regimen, day of treatment): Day 3 or 4
effect on serum iron ([3]; single (SAD) or once-daily (MAD) oral administration): rapid, robust, and sustained dose-related increases in serum iron
time of peak serum iron effect ([3]; single dose, Day 2, post-dose): 24 h
reversibility of lymphopenia ([4]; after the treatment period ended): reversible
development of lymphopenia (lymphocyte counts<1.0×10^9 cells/L) ([4]; repeated oral administration, onward): ≥ 6 day
start of decreases in lymphocyte counts ([4]; repeated oral administration, post treatment, higher doses): 5 days
peak increase in reticulocyte hemoglobin content ([5]; MAD): 7 days
start of increase in reticulocyte hemoglobin content ([5]; MAD cohorts 1-4, post-dosing): 4 days
effect on reticulocyte hemoglobin content ([5]; repeated administration): increases over baseline in the hemoglobin content of reticulocytes
half-life ([6]; both sexes, human, in vivo, oral, approximately): 10 to 15 h
mean AUC and Cmax versus dose ([6]; multiple doses from 50-200 mg): increased linearly with greater than dose-proportional increases
earliest decrease in hepcidin after first dose ([7]; MAD Cohort 5, 100 mg): 4 h
effect on serum hepcidin versus placebo ([7]; once-daily oral over 7 days, similar at 50 mg, 100 mg and 200 mg): robust decreases in baseline hepcidin
effect on serum ferritin ([8]; MAD cohort participants): decreases were observed in serum ferritin
effect on serum ferritin, single versus multiple doses ([8]; SAD versus MAD): observed only after multiple doses

COc1cc2c(-c3cnn4cc(N5CC(N6CCN(C)CC6)C5)cnc34)ccnc2cc1F [Formula I-42]
effect on non-dextran-bound iron content in livers [9]: significantly reduced non-dextran-bound iron content
onset of hepcidin reduction [10]: as soon as four hours post-administration
hepcidin reduction sustained through ([10]; post-administration): 12 h
effect on circulating hepcidin ([10]; wild-type mice): reduced circulating hepcidin levels
peak serum iron ([11]; at 16 hours, average): 716.31 µg/dL
onset of serum iron increase ([11]; third treatment day): eight hours post-administration
time of peak serum iron ([11]; third treatment day, post-administration): 16 h
effect on serum iron ([11]; third treatment day, wild-type mice): increased serum iron
effect on liver iron content [12]: reduce liver iron content; also recorded: significantly reduced liver iron content
